Results from patent US20260166159A1, “KRAS G12D DEGRADATION AGENT, AND PREPARATION METHOD AND USE THEREFOR” (LEADINGTAC PHARMACEUTICAL (SHAOXING) CO., LTD., priority 2022, published 2026).

How the values were obtained:
Assay type in all cases: cell-based
KRAS-G12D [1] = target: T1, KRAS-G12D (Homo sapiens, UniProt P01116, G12D); test: KRAS-G12D degradation assay (Western Blot), A-427 cells; details: A427 cells, 24 h; for Dmax: A-427
T1 construct: endogenous in cells; host or cells: A-427 (ATCC), AGS, AsPc-1, Panc 04.03
T1 sequence (P01116 1-188 isoform P01116-2 G12D): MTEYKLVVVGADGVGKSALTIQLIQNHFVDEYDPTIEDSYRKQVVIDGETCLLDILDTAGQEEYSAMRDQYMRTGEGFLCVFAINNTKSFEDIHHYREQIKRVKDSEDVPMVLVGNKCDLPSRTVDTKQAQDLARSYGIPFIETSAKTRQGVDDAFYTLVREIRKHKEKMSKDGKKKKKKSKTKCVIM
Procedure: (§1) The degradation effects of the compounds on KRAS-G12D were investigated on KRAS G12D mutant human lung cancer cell A-427 (ATCC), KRAS G12D mutant human gastric cancer cell AGS, KRAS G12D mutant human metastatic pancreatic cancer cell AsPc-1, and KRAS G12D mutant human pancreatic adenocarcinoma cell Panc 04.03. The specific procedures were as follows: 0.95 mL of cells were seeded into each well of a 24-well cell culture plate to achieve a cell density of 5×10^5 cells/well; and the cell plate was incubated in an incubator at 37° C. with 5% CO2 overnight. Then 50 μL of the compound solution after dilution was added to each of the wells with the corresponding cells, so that the final concentration of the compound was in a range of 0.03-3000 nM. The final concentration of DMSO was 0.25%. After the compounds were added, the cell plate was incubated in the incubator at 37° C. with 5% CO2 for 24 h. The culture medium in the 24-well cell culture plate was removed, and the plate was washed twice with 1×PBS (KeyGEN). 120 μL of RIPA (strong) lysis buffer (Beyotime) supplemented with 1 mM phenylmethylsulfonyl fluoride, a protease inhibitor mixture (Beyotime), and a protease phosphatase inhibitor mixture (Beyotime) was added to lyse adherent A-427 cells at the bottom of the cell culture plate. After the plate was left to stand on ice for 30 min, the protein lysate in each well was transferred to a 1.5 mL centrifuge tube and centrifuged at 15000 g for 20 min at 4° C. The cell lysate supernatants after centrifugation were cryopreserved in a refrigerator at −80° C. for later use.
(§2) After the samples of the cell lysate supernatants that had been prepared were thawed from the refrigerator at −80° C., the total protein concentrations of the cell lysates were determined using a BCA protein quantification kit (Tiangen). The total protein concentrations of the samples were then adjusted to 0.5 μg/μL with PBS and 5×SDS-PAGE protein loading buffer (Beyotime), and the samples were incubated in a water bath at 100° C. for 15 min. The samples were then incubated in an ice bath for 5 min and centrifuged at 14000 g for 1 min at 4° C., and the supernatants were mixed well as loading samples for the Western Blot assay. The samples were loaded into wells of a 10% precast gel (KeyGEN) with a loading volume of 10 μL (total protein: 5 μg), a sufficient Tris-MOPS-SDS running buffer (Adamas) was added, and then electrophoresis was performed at a constant voltage of 120 V for 55 min. After the electrophoresis, the proteins on the gel were transferred to PVDF membranes at a constant current of 250 mA for 55 min. After the membrane transfer, the PVDF membranes were incubated in 1× Quick Block blocking buffer (Beyotime) at room temperature for 30 min. After the blocking, the PVDF membranes were separately incubated at 4° C. overnight with the KRAS antibody (Abcam) diluted in a ratio of 1:1000 and the […] antibody (Abcam) diluted in a ratio of 1:2000 in 5% BSA as the diluent, and then washed with 1×TBST buffer (2.4 g of Tris, 8.8 g of NaCl, 1.5 mL of Tween 20, with pH adjusted to 7.4, with the volume brought to 1 L) 3 times for 10 min/time. The membranes were incubated with a secondary antibody (Abcam) diluted in 5% BSA at room temperature for 2 h, and then washed with 1×TBST buffer 3 times for 10 min/time. Finally, the membranes were incubated with Clarity Western ECL Substrate (BIO-RAD) for 5 min for luminescence and color development, and a ChemiScope 6200 Touch chemiluminescence imaging system (Clinx) was used for color development and protein mapping. Gray value analysis of the protein maps was performed using the chemiluminescence analysis software (Clinx). The gray correction value for each sample was calculated using the formula: gray correction value=(gray value of target protein/gray value of corresponding internal reference)×10^3. Then degradation rates were calculated by comparison with the gray correction value of the control group. […]

[2] = tested on: KRAS G12D mutant human lung cancer cell A427; test: 3D cell proliferation inhibition assay, A427; details: A-427, 168 h, A427, 7 days, CTG
Text: (§3) The inhibitory effects of the compounds on 3D cell proliferation were investigated on KRAS G12D mutant human lung cancer cell A427, KRAS G12D mutant human gastric cancer cell AGS, KRAS G12D mutant human metastatic pancreatic cancer cell AsPc-1, KRAS G12D mutant human pancreatic cancer cell Panc 04.03, KRAS G12D mutant human pancreatic cancer cell HPAC, KRAS G12V mutant human lung squamous cell carcinoma cell SW900, and KRAS WT human gastric cancer cell MKN1. The specific procedures were as follows:
(§4) 10 μL of each compound solution diluted in a gradient was added to corresponding wells of a 96-well low-adsorption microplate (PerkinElmer), so that the final concentrations of the test compounds in the reaction system were in a range of 10000-0.026 nM. The final concentration of DMSO was 0.2%. Then 90 µL of cells were correspondingly seeded into each well to achieve a cell density of 5×10^2 cells/well (the cell density of SW900 was 5×10^1 cells/well, and the cell density of MKN1 was 1×10^3 cells/well). In addition to test wells for the test compounds, both a DMSO control well and a medium control well were set, with the DMSO control well containing DMSO and cells and the medium well containing only a medium. After the sample loading, the 96-well low-adsorption microplate was incubated in an incubator at 37° C. with 5% carbon dioxide for 7 days. After 7 days, the microplate was taken out, and 100 μL of CTG reagent (Promega) was added to each well. The plate was incubated at room temperature for 60 min and read on a microplate reader EnVision by the chemiluminescence program. The inhibition rates of the compounds at each concentration were calculated using the formula for the percentage inhibition of cell proliferation: inhibition rate %=(mean value of DMSO control group−single concentration reading value of compound)/(mean value of DMSO control group−mean value of medium control group)×100. Then non-linear curve fittings for logarithmic concentration-inhibition rate were performed by GraphPad Prism 8, and the IC50 values of the compounds were obtained (Table 5).

[3] = tested on: KRAS G12D mutant human gastric cancer cell AGS; test: 3D cell proliferation inhibition assay, AGS; details: 168 h, 7 days, CTG
Text: as §3, §4

KRAS-G12D [4] = target: T1, KRAS-G12D; test: KRAS-G12D degradation assay (Western Blot), AsPc-1 cells; details: for DC50: 24 h; for Dmax: ASPC1, 24 h
Procedure: as §1, §2

For `C#Cc1c(F)ccc2cc(O)cc(-c3ncc4c(N5CC6CCC(C5)N6)nc(NCC5(CN6CCN(CC7CCC8(CC7)CCN(C(=O)c7ccc(C)c(N9CCC(=O)NC9=O)c7)CC8)CC6)CC5)nc4c3F)c12` [Example 44, 1-(5-(9-((4-((1-(((4-(3,8-diazabicyclo[3.2.1]octan-3-yl)-7-(8-ethynyl-7-fluoro-3-hydroxynaphthalen-1-yl)-8-fluoropyrido[4,3-d]pyrimidin-2-yl)amino)methyl)cyclopropyl)methyl)piperazin-1-yl)methyl)-3-azaspiro[5.5]undecane-3-carbonyl)-2-methylphenyl)dihydropyrimidine-2,4(1H,3H)-dione], which DC50 (KRAS-G12D [1]; class symbols) is on record?
Its DC50 is at most 50 nM.

And the Dmax (KRAS-G12D [1]; class symbols)?
The Dmax was 80 to 100%.

What about the IC50 ([2]; class symbols) of the same compound?
Its IC50 is 100 to 500 nM.

And the IC50 ([3]; class symbols)?
The IC50 was at most 50 nM.

What does the source list for `CCc1cccc2cc(O)cc(-c3ncc4c(N5CC6CCC(C5)N6)nc(NCC5(CN6CCN(CC7CCC8(CC7)CCN(C(=O)c7ccc(Cl)c(N9CCC(=O)NC9=O)c7)CC8)CC6)CC5)nc4c3F)c12` [Example 47, 1-(5-(9-((4-((1-(((4-(3,8-diazabicyclo[3.2.1]octan-3-yl)-7-(8-ethyl-3-hydroxynaphthalen-1-yl)-8-fluoropyrido[4,3-d]pyrimidin-2-yl)amino)methyl)cyclopropyl)methyl)piperazin-1-yl)methyl)-3-azaspiro [5.5]undecane-3-carbonyl)-2-chlorophenyl)dihydropyrimidine-2,4(1H,3H)-dione]?
DC50 (KRAS-G12D [1]; class symbols): 100 to 500 nM; Dmax (KRAS-G12D [1]; class symbols): 50 to 80%; IC50 ([2]; class symbols): 50 to 100 nM; IC50 ([3]; class symbols): 50 to 100 nM

Which results are given for `C#Cc1c(F)ccc2cc(O)cc(-c3ncc4c(N5CC6CCC(C5)N6)nc(OCC5(CN6CCC(CCOCC7(OC)CCN(C(=O)c8ccc(Cl)c(N9CCC(=O)NC9=O)c8)CC7)CC6)CC5)nc4c3F)c12` [Example 67, 1-(5-(4-((2-(1-((1-(((4-(3,8-diazabicyclo[3.2.1]octan-3-yl)-7-(8-ethynyl-7-fluoro-3-hydroxynaphthalen-1-yl)-8-fluoropyrido[4,3-d]pyrimidin-2-yl)oxy)methyl)cyclopropyl)methyl)piperidin-4-yl)ethoxy)methyl)-4-methoxypiperidine-1-carbonyl)-2-chlorophenyl)dihydropyrimidine-2,4(1H,3H)-dione]?
IC50 ([2]; numeric values): 36.5 nM; IC50 ([3]; numeric values): 33.6 nM

How did the DC50 (KRAS-G12D [1]; numeric values) turn out when `CCc1cccc2cc(O)cc(-c3ccc4c(N5CC6CCC(C5)N6)nc(OCC5(CN6CCN(CC7CCC8(CC7)CCN(C(=O)c7ccc(C)c(N9CCC(=O)NC9=O)c7)CC8)CC6)CC5)nc4c3F)c12` [Example 70, 1-(5-(9-((4-((1-(((4-(3,8-diazabicyclo[3.2.1]octan-3-yl)-7-(8-ethyl-3-hydroxynaphthalen-1-yl)-8-fluoroquinazolin-2-yl)oxy)methyl)cyclopropyl)methyl)piperazin-1-yl)methyl)-3-azaspiro[5.5]undecane-3-carbonyl)-2-methylphenyl)dihydropyrimidine-2,4(1H,3H)-dione] was run?
Its DC50 is 14.6 nM.

And the Dmax (KRAS-G12D [1]; numeric values)?
Its Dmax is 87.3%.

And the IC50 ([3]; numeric values)?
The IC50 was 15.5 nM.

For `C#Cc1c(F)ccc2cc(O)cc(-c3ncc4c(N5CC6CCC(C5)N6)nc(SCC5(CN6CCN(CC7CCC8(CC7)CCN(C(=O)c7ccc(OC)c(N9CCC(=O)NC9=O)c7)CC8)CC6)CC5)nc4c3F)c12` [Example 54, 1-(5-(9-((4-((1-(((4-(3,8-diazabicyclo[3.2.1]octan-3-yl)-7-(8-ethynyl-7-fluoro-3-hydroxynaphthalen-1-yl)-8-fluoropyrido[4,3-d]pyrimidin-2-yl)thio)methyl)cyclopropyl)methyl)piperazin-1-yl)methyl)-3-azaspiro[5.5]undecane-3-carbonyl)-2-methoxyphenyl)dihydropyrimidine-2,4(1H,3H)-dione], which IC50 ([2]; class symbols) is on record?
Its IC50 is at most 50 nM.

What about the IC50 ([3]; class symbols) of the same compound?
Its IC50 is at most 50 nM.

Which results are given for `C#Cc1c(F)ccc2cc(O)cc(-c3ncc4c(N5CC6CCC(C5)N6)nc(OCCN5CCN(CC6CCC7(CC6)CCN(C(=O)c6ccc(Cl)c(N8CCC(=O)NC8=O)c6)CC7)CC5)nc4c3F)c12` [Example 60, 1-(5-(9-((4-(2-((4-(3,8-diazabicyclo[3.2.1]octan-3-yl)-7-(8-ethynyl-7-fluoro-3-hydroxynaphthalen-1-yl)-8-fluoropyrido[4,3-d]pyrimidin-2-yl)oxy)ethyl)piperazin-1-yl)methyl)-3-azaspiro[5.5]undecane-3-carbonyl)-2-chlorophenyl)dihydropyrimidine-2,4(1H,3H)-dione]?
IC50 ([2]; class symbols): 100 to 500 nM; IC50 ([3]; class symbols): ≤ 50 nM

How did the DC50 (KRAS-G12D [4]) turn out when `C#Cc1c(F)ccc2cc(O)cc(-c3ncc4c(N5CC6CCC(C5)N6)nc(OC[C@H](O)CN5CCN(CC6CCC7(CC6)CCN(C(=O)c6ccc(OC)c(N8CCC(=O)NC8=O)c6)CC7)CC5)nc4c3F)c12` [Example 191, 1-(5-(9-((4-((R)-3-((4-(3,8-diazabicyclo[3.2.1]octan-3-yl)-7-(8-ethynyl-7-fluoro-3-hydroxynaphthalen-1-yl)-8-fluoropyrido[4,3-d]pyrimidin-2-yl)oxy)-2-hydroxypropyl)piperazin-1-yl)methyl)-3-azaspiro[5.5]undecane-3-carbonyl)-2-methoxyphenyl)dihydropyrimidine-2,4(1H,3H)-dione] was run?
Its DC50 is 149 nM.

And the Dmax (KRAS-G12D [4])?
The Dmax was 81.9%.

Which DC50 (KRAS-G12D [4]) does the source give for `C#Cc1c(F)ccc2cc(O)cc(-c3ncc4c(N5CC6CCC(C5)N6)nc(OC[C@@H](CN5CCN(CC6CCC7(CC6)CCN(C(=O)c6ccc(C)c(N8CCC(=O)NC8=O)c6)CC7)CC5)OC)nc4c3F)c12` [Example 172, 1-(5-(9-((4-((R)-3-((4-(3,8-diazabicyclo[3.2.1]octan-3-yl)-7-(8-ethynyl-7-fluoro-3-hydroxynaphthalen-1-yl)-8-fluoropyrido[4,3-d]pyrimidin-2-yl)oxy)-2-methoxypropyl)piperazin-1-yl)methyl)-3-azaspiro[5.5]undecane-3-carbonyl)-2-methylphenyl)dihydropyrimidine-2,4(1H,3H)-dione] here?
Its DC50 is 113 nM.

What about the Dmax (KRAS-G12D [4]) of the same compound?
The Dmax was 55%.
